Literature values in patent US20110064711A1, “COMPOSITIONS CONTAINING COENZYME Q-10 AND AN ANTIOXIDANT” (priority 2009, published 2011).

Conditions: exposure to ambient air; general statement, time not given

reduced form of CoQ10 on a weight basis after exposure to air: below 20%
SMILES: COc1c(O)c(C)c(C/C=C(\C)CC/C=C(\C)CC/C=C(\C)CC/C=C(\C)CC/C=C(\C)CC/C=C(\C)CC/C=C(\C)CC/C=C(\C)CC/C=C(\C)CCC=C(C)C)c(O)c1OC [Commercial reduced CoQ10 powder]
